# Columns and labels:
# [1] = tested on: rabbit penile blood vessels; experiment: Vasorelaxation of isolated rabbit penile blood vessel ring segments in a small vessel myograph, normalized to papaverine; type: cell-based; conditions: FIG. 2; precontracted with 10^−6 M norepinephrine
# Description: To study the effect of the PGE1 and […]-OH-PGE2 on the penile vasculature, penile blood vessels of the rabbit were isolated and mounted as ring segments in a small vessel myograph (J.P. Trading, Denmark) containing a solution consisting of NaCl 119 mM, KCl 4.7 mM, CaCl2 1.5 mM, MgSO4 1.17 mM, KH2PO4 1.18 mM, NaHCO3 25 mM, EDTA 0.027 mM and glucose 11 mM. The solution also contained indomethacin at a final concentration of about 3 μM, and was continuously bubbled by 95% O2 and 5%CO2. The temperature was kept constant at 37° C. The vessels were stretched and then precontracted using 10^-6 M norepinephrine, and the vasorelaxant effect of the prostaglandin analogues was normalized by comparing it to that of papaverine in the same preparation. Cumulative concentration-response curves were constructed for the analogues.
# [2] = tested on: cat eyes; experiment: Irritant effect in cat eyes (behavioural model, degree of eyelid closure); type: in vivo; conditions: for irritant effect in words, compared to PGE1-isopropyl ester: even at doses 1000 times higher than PGE1-isopropyl ester
# Description: (§1) The effect of the test compounds on cavernous tissue was tested using penile tissue. As mentioned previously both in the male and female the genitals contain cavernous tissue, and the penile tissue can therefore be used as model for genital cavernous tissue. The general blood vessel relaxing effect of the test compounds was studied by investigating the immediate blood pressure decrease in rats upon intravenous infusion of the test compounds. The acute drop in blood pressure reflects a peripheral vasodilation in the animals brought about by the test compounds. The general irritative effect of the test compounds was studied in the cat eye which is very sensitive to noxious stimuli.
# The irritant effect of the prostaglandin analogues was tested using a behavioural model in cats. In this model the irritant effect on the eye is studied by registering the degree of eyelid closure and the behaviour of the animals. Compounds that cause discomfort and pain in the eye cause the animals to close their eyes. The analogues were applied as carboxylic acid esters, to enhance bioavailability, topically on the eye as a single dose at different dose levels. The animals were then followed for several hours at regular intervals. Each compound and dose was tested on a group of 3-6 cats. At least 3 days elapsed between two consecutive tests on the same animals. An arbitrary scale from 0 (absence of irritation) to 3 (marked irritation), with half steps was used.
# [3] = tested on: cat eye; experiment: Intraocular pressure in cats by pneumatonometry after topical administration; type: in vivo; conditions: 1 hour after topical administration; 3 cats, local anaesthesia; before treatment 16.3+/−0.9 mmHg; control eyes 15.7+/−0.7
# Description: To confirm that 19R-OH-PGE2-methyl ester, which is more hydrophilic than PGE1-isopropyl ester, indeed penetrates into the cornea and the intraocular parts of the eye we measured the intraocular pressure in 3 cats under local anaesthesia before and 1 hour after topical administration of the prostaglandin to the eye. The intraocular pressure was measured by pneumatonometry. One eye was treated with the test compound and the other eye received the vehicle only. In the eyes treated topically with 19R-OH-PGE2-methyl ester the intraocular pressure decreased from 16.3+/−0.9 mmHg to 12.7+/−1.2 mmHg, whereas it was 16.3+/−0.9 mmHg and 15.7+/−0.7 mmHg in the control eyes at the same time points. It is well known that prostaglandins reduce the intraocular pressure in cats (Bito et al., 1989), and it can thus be taken as an evidence that the drug has penetrated into the eye. […] Thus the absence of pain and irritation after administration of 18RS-OH-PGE2, 19R-OH-PGE2 and 20-OH-PGE2 cannot be explained en the basis of increased hydrophilicity and poor bioavailability.
# [4] = tested on: human corpus cavernosum tissue; experiment: Relaxation of isolated human penile cavernous tissue precontracted with norepinephrine, normalized to carbachol; type: cell-based; conditions: FIG. 1, parallel curves; about half to one third as potent as PGE1
# Description: as §1
# Human penile cavernous tissue was obtained fresh from surgery, and representative tissue samples were mounted in smooth muscle tissue baths containing a modified Kreb's solution consisting of NaCl 119 mM, KCl 4.6 mM, MgCl2 1.2 mM, NaH2PO4 1.2 mM, NaHCO3 15 mM, CaCl2 1.5 mM and glucose 11 mM. The solution also contained indomethacin at a final concentration of about 3 μM. The solution was continuously bubbled by 95% O2 and 5% CO2, and the temperature was kept at 37° C. […]
# [5] = tested on: rabbit eye; conditions: rabbits; Hall and Jaitly, 1977; cited from earlier work
compound,measurement,setting,value
"CCCCC[C@H](O)/C=C/[C@H]1[C@H](O)CC(=O)[C@@H]1CCCCCCC(=O)O [PGE1, reference compound]","vasodilatory effect (efficacy and potency, PGE1 versus 19R-OH-PGE2)",[1],the same efficacy in inducing vasodilatation and were also about equipotent
"COC(=O)CCC/C=C\C[C@H]1C(=O)C[C@@H](O)[C@@H]1/C=C/[C@@H](O)CCC[C@@H](C)O [19R-OH—PGE2-me, 19-R-hydroxy-prostaglandin E2-methyl ester]","irritant effect in words, compared to PGE1-isopropyl ester",[2],no or markedly reduced irritant effect
same,intraocular pressure,[3],12.7+/−1.2 mmHg
"C[C@@H](O)CCC[C@H](O)/C=C/[C@H]1[C@H](O)CC(=O)[C@@H]1C/C=C\CCCC(=O)O [19R-OH-PGE2, 19R-hydroxy-prostaglandin E2]",factor by which concentration-response curve differs from PGE1 (less potent),[4],2-3
same,"vasodilatory effect (efficacy and potency, PGE1 versus 19R-OH-PGE2)",[1],the same efficacy in inducing vasodilatation and were also about equipotent
same,irritation by swelling of the ocular structures,[2]; cat eye,no evidence of such irritation
same,irritant effect on ocular structures,[5],inducing swelling of the ocular structures
same,lid closure,[5],does not cause lid closure
"CCC(O)CC[C@H](O)/C=C/[C@H]1[C@H](O)CC(=O)[C@@H]1C/C=C\CCCC(=O)OC (stereo partly drawn) [18RS-OH—PGE2-me, 18RS-hydroxy PGE2 methyl ester]","irritant effect in words, compared to PGE1-isopropyl ester",[2],no or markedly reduced irritant effect
